Common to all, as to assay type: cell-based, human
Assay [1] relates to RBCs. The experiment in a line: Effect of C-peptide binding facilitator on C-peptide binding to RBCs (Example 2 protocol). Conditions: for C-peptide binding to RBCs, MS: n = 1. How it is done: Similar studies were performed using serum albumin from other species (human, porcine, chicken); all of these forms deliver C-peptide to RBCs and are useful in the methods described herein.
All samples were handled in an identical manner. Briefly, about 10 mL of blood was drawn from each donor; the RBCs were purified by centrifugation; and the RBCs were suspended in physiological salt solution (PSS). Then RBCs were combined with PSS (containing bovine serum albumin (BSA) as a C-peptide binding facilitator) and C-peptide to generate a mixture having a 7% hematocrit, 20 nM C-peptide, and 75 μM BSA (0.5%). The mixture was allowed to incubate for 2 hours at 37° C. Next, the samples were centrifuged to separate the cells from solution, the solution was diluted 1:50 with double distilled water, and the amount of C-peptide remaining in the solution was determined by ELISA. This provided a value corresponding to the moles of C-peptide bound to the RBCs. […] Whereas blood from the healthy controls bound an average of 1.99±0.32 pmoles C-peptide, blood from MS patients and OND patients bound averages of 3.51±0.59 pmoles of C-peptide and 2.23±0.51 pmoles of C-peptide, respectively. As shown by p values of less than 0.001, the increase in C-peptide binding relative to healthy controls and OND patients is significant.
Experiments were performed to determine the effect of C-peptide binding facilitator concentration on C-peptide binding by RBCs. The protocol of Experiment 2 was repeated, but with increasing BSA concentrations. […] Only a slight increase in C-peptide binding is realized.
Experiments were performed to test various potential C-peptide binding facilitators. The experiments were performed as described in example 2, but the C-peptide binding facilitator, BSA, was replaced with other albumins (porcine serum albumin and ovalbumin) or other proteins (leptin, casein, transferrin, and collagen).

Assay [2] relates to RBCs. In words: 65Zn2+ binding to RBCs. To be noted: 20 nM 65Zn2+ and 20 nM C-peptide. An excerpt:
In some embodiments, e.g., those in which RBCs are contacted with C-peptide and Zn^2+, Fe^2+, and/or Cr^3+, in the presence of albumin or other C-peptide binding facilitator, Zn^2+, Fe^2+, and/or Cr^3+ uptake by RBCs can be measured (e.g., as a proxy for C-peptide uptake). Methods for detecting or measuring Zn^2+ uptake by RBCs are known in the art and described in, e.g., Horn et al. (1995) J Physiol 489(1):73-80 (describing the use of radiolabeled Zn^2+).
Additional samples from healthy controls and MS patients were analyzed for C-peptide binding, ATP release (10 healthy control patients, 10 MS patients, and 12 MS patients with glybenclamide), and Zn^2+ binding (11 healthy control patients and 22 MS patients). […] Here, 20 nM ^65Zn^2+ was incubated with the RBCs and 20 nM C-peptide. It is noteworthy that in 32 of these 34 samples, MS ATP release, C-peptide and/or Zn^2+ binding, was higher than the control samples analyzed simultaneously with the MS samples.

In a further assay the test system is RBCs of MS patients. In words: ATP release from RBCs in a constricted environment (luciferin/luciferase chemiluminescence). To be noted: RBCs of MS patients incubated with the inhibitor; 7% hematocrit, flow; MS without inhibitor 344.7±46.8 nM, healthy controls 132.1±14.1 nM. An excerpt:
In some embodiments, detecting or measuring the amount of C-peptide uptake can be accomplished by measuring ATP release by the RBCs contacted with C-peptide (and, optionally, Zn^2+, Fe^2+, and/or Cr^3+). Methods for measuring ATP release by RBCs are known in the art and described in, e.g., Faris and Spence (2008) Analyst 133(5):678-682; Fischer et al. (2003) Analyst 128(9):1163-1168; Petruzzi et al. (1994) Metabalism 43(4):435-440; Richards et al. (2013) Am J Physiol Regul Integr Comp Physiol 305(11):R1331-1336; and Richards et al. (2014) Am J Physiol Regul Integr Comp Physiol 307(7):R862-868. For example, ATP can be measured using a luciferin-luciferase assay. […] The light emitted from the reaction with ATP can be quantified using a luminometer. […]
Experiments were performed to determine if RBCs from MS patients (n=19) release more ATP than blood from healthy control patients (n=10) or blood from MS patents combined with the ATP release inhibitor, glybenclamide (Gly; n=12) when subjected to a constricted environment. […] The portion of tubing having the polyimide coating removed was positioned over a light-excluding box containing a photomultiplier tube (PMT), such that chemiluminescence generated from the ATP contacting the detection facilitator was detected. […]

Where [3] appears, read: other protein in place of BSA, n = 3.
[4] abbreviates: other albumin in place of BSA, n = 4.

We go through nine molecules from patent US10627415B2, “Compositions and methods for diagnosing, monitoring, and treating an autoimmune disease” (BOARD OF TRUSTEES OF MICHIGAN STATE UNIVERSITY, priority 2015, dated 2020).

With casein, in the assay with RBCs [1] (other protein in place of BSA), the “C-peptide binding to RBCs, MS” value is recorded as “No binding detected”. For the same molecule, in the assay with RBCs [1] (setting [3]), the “C-peptide binding to RBCs, Control” value is “No binding detected”.

In the case of bovine serum albumin [BSA], the C-peptide binding was 2.14 ± 0.22 pmol in the assay with RBCs [1] ([BSA] 0.5%), 2.19 ± 0.16 pmol in the assay with RBCs [1] ([BSA] 1.0%) and 2.26 ± 0.13 pmol with RBCs [1] ([BSA] 2.0%).

For `[65Zn+2]` [^65Zn^2+], the results for the “amount of 65Zn2+ able to bind with the RBCs” value in the assay with RBCs [2] (RBCs of MS patients) and in the assay with RBCs [2] (RBCs of healthy controls) were 3.61±0.22 picomoles and 2.26±0.24 picomoles, respectively.

As to leptin, the “C-peptide binding to RBCs, MS” value in the assay with RBCs [1] (other protein in place of BSA) stood at 0.97 pmol. The “C-peptide binding to RBCs, Control” value with RBCs [1] (setting [3]) turned out to be 0.74 ± 0.11 pmol.

Turning to collagen, the “C-peptide binding to RBCs, MS” value in the assay on RBCs [1] (other protein in place of BSA) amounted to 0.56 pmol. The “C-peptide binding to RBCs, Control” value with RBCs [1] (setting [3]) came to 0.21 ± 0.14 pmol.

On to transferrin, for which the “C-peptide binding to RBCs, MS” value in the assay on RBCs [1] (other protein in place of BSA) was “No binding detected”. The “C-peptide binding to RBCs, Control” value with RBCs [1] (setting [3]) is reported as “No binding detected”.

For ovalbumin, in the assay with RBCs [1] (other albumin in place of BSA), the “C-peptide binding to RBCs, MS” value amounted to 0.67 pmol. Also, the “C-peptide binding to RBCs, Control” value with RBCs [1] (setting [4]) amounted to 0.39 ± 0.22 pmol.

In the assay on RBCs of MS patients, `COc1ccc(Cl)cc1C(=O)NCCc1ccc(S(=O)(=O)NC(=O)NC2CCCCC2)cc1` [glybenclamide] showed an ATP release of 65.3 ± 11.6 nM.

B1: porcine serum albumin (protein, UniProt P08835 25-607, looked up)
Albumin: DTYKSEIAHRFKDLGEQYFKGLVLIAFSQHLQQCPYEEHVKLVREVTEFAKTCVADESAENCDKSIHTLFGDKLCAIPSLREHYGDLADCCEKEEPERNECFLQHKNDNPDIPKLKPDPVALCADFQEDEQKFWGKYLYEIARRHPYFYAPELLYYAIIYKDVFSECCQAADKAACLLPKIEHLREKVLTSAAKQRLKCASIQKFGERAFKAWSLARLSQRFPKADFTEISKIVTDLAKVHKECCHGDLLECADDRADLAKYICENQDTISTKLKECCDKPLLEKSHCIAEAKRDELPADLNPLEHDFVEDKEVCKNYKEAKHVFLGTFLYEYSRRHPDYSVSLLLRIAKIYEATLEDCCAKEDPPACYATVFDKFQPLVDEPKNLIKQNCELFEKLGEYGFQNALIVRYTKKVPQVSTPTLVEVARKLGLVGSRCCKRPEEERLSCAEDYLSLVLNRLCVLHEKTPVSEKVTKCCTESLVNRRPCFSALTPDETYKPKEFVEGTFTFHADLCTLPEDEKQIKKQTALVELLKHKPHATEEQLRTVLGNFAAFVQKCCAAPDHEACFAVEGPKFVIEIRGILA
Regarding B1, in the assay with RBCs [1] (other albumin in place of BSA), the “C-peptide binding to RBCs, MS” value came out at 6.33 pmol. Besides, the “C-peptide binding to RBCs, Control” value in the assay with RBCs [1] (setting [4]) came out at 4.01 ± 1.01 pmol.
